In BindingDB's records for doi:10.1042/0264-6021:3510095 (University of Dundee, 2001):

Assay: Inhibition of His-tagged human PDK1 expressed in Sf21 cells

IC50: 300 nM
SMILES: CCCCCCOC(=O)[C@@]1(O)C[C@H]2O[C@]1(C)n1c3ccccc3c3c4c(c5c6ccccc6n2c5c31)C(=O)NC4 [KT-5720]
